From paper PMC9962224, “Novel Inhibitors of Acetyl- and Butyrylcholinesterase Derived from Benzohydrazides: Synthesis, Evaluation and Docking Study” (Pharmaceuticals, 2023)

What was measured:
[1] = target: T1, AChE (obtained from electric eel; EeAChE) (Electrophorus electricus, UniProt O42275); experiment: biochemical; assay type: biochemical; details: for Selectivity BChE/AChE: SI = ratio of IC50 for BChE/IC50 for AChE, above 1 = stronger inhibition of AChE; for IC50: electric eel AChE, mean ± SD from three independent experiments
T1 construct: AChE (obtained from electric eel); purchased Merck (Prague, Czech Republic); host or cells: electric eel (natural source)
T1 sequence (O42275 24-633): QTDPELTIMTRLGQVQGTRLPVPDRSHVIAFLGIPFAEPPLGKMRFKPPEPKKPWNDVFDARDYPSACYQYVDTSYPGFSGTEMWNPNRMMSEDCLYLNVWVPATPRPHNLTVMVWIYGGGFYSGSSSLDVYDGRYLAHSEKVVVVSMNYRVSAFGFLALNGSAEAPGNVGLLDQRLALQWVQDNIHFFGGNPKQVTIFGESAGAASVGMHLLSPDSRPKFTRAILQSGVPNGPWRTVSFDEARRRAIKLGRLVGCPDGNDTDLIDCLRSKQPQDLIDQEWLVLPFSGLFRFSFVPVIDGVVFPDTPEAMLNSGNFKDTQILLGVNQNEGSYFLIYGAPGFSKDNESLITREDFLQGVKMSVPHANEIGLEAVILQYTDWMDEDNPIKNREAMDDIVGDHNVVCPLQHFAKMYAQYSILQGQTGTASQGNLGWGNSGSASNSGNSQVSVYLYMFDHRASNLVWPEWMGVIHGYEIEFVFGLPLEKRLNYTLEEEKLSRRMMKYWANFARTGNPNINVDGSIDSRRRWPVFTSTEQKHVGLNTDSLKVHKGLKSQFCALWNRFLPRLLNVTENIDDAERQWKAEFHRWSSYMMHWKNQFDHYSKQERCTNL
Text: (§1) Hydrazinecarboxamides 1–3 were examined in vitro for their potential to inhibit the function of AChE (obtained from electric eel) and BChE from equine serum using Ellman’s spectrophotometric method (Table 2). The activities are expressed as IC50 values, i.e., concentrations leading to 50% inhibition of enzymatic activity. Based on the IC50 values for AChE and BChE, we calculated selectivity indexes (SI) that quantified the selectivity for each cholinesterase. SI is the ratio of IC50 for BChE/IC50 for AChE.
(§2) The enzyme activity in the final reaction mixture (2000 µL) was 0.2 U/mL, the concentration of ATCh (or BTCh) was 40 µM, and the concentration of DTNB was 100 µM for all reactions. The investigated derivatives were dissolved in DMSO and then diluted with demineralized water (conductivity 3 μS, equipment supplier BKG Water Treatment, Hradec Králové, Czech Republic) to a concentration of 1000 µM. Five different inhibitor concentrations were used for all tested compounds in the final reaction mixture. The final concentration of DMSO was 0.2%. All experiments were performed in triplicate. The average values of the reaction rate (v0-uninhibited reaction, vi-inhibited reaction) were used to construct the dependence of v0/vi on the concentration of inhibitors. IC50 values were calculated from obtained regression curve equations.
(§3) Acetylcholinesterase originating from electric eels (Electrophorus electricus L.; EeAChE) and butyrylcholinesterase obtained from equine serum (EqBChE) were used.

[2] = target: T2, BChE from equine serum (EqBChE) (Equus caballus, UniProt P81908); experiment: biochemical; assay type: biochemical; details: for IC50: equine serum BChE, mean ± SD from three independent experiments
T2 construct: BChE from equine serum; purchased Merck (Prague, Czech Republic); host or cells: equine serum (natural source)
T2 sequence (P81908 whole entry): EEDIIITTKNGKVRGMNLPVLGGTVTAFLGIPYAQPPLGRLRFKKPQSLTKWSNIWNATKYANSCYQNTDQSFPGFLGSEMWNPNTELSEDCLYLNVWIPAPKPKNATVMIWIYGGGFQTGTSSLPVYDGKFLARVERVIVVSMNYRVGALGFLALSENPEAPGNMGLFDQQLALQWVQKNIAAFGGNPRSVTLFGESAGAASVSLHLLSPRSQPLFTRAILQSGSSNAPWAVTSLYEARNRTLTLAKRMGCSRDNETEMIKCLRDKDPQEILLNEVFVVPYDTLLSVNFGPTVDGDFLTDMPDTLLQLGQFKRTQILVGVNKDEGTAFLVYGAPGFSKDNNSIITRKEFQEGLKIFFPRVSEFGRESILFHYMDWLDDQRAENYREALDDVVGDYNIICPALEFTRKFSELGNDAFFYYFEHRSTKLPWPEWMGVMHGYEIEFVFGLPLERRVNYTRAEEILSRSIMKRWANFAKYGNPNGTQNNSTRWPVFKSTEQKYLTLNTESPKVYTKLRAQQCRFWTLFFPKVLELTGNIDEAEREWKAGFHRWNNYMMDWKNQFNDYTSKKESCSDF
Text: as §1, §2, §3

SMILES	Selectivity BChE/AChE [1]	IC50 [1] [µM]	IC50 [2] [µM]	Fold improvement of BChE inhibition, tridecyl vs. N-methyl analog ([2]; 1g vs. 1h) [×]	Fold superiority of BChE inhibition over parent compound P2 ([2]; vs. P2) [×]
CNC(=O)NNC(=O)c1ccc(OC(F)(F)F)cc1 [1a, N-Methyl-2-[4-(trifluoromethoxy)benzoyl]hydrazine-1-carboxamide]	3.6	56.76 ± 0.49	204 ± 13.5		
CNC(=O)NNC(=O)c1ccc(O)cc1 [1aa, 2-(4-Hydroxybenzoyl)-N-methylhydrazine-1-carboxamide]	3.7	67.6 ± 1.3	247 ± 18.4		
CCCCCCCCCCCCCNC(=O)NNC(=O)c1ccc(OC(F)(F)F)cc1 [1b, N-Tridecyl-2-[4-(trifluoromethoxy)benzoyl]hydrazine-1-carboxamide]	1.9	65.1 ± 1.15	125.2 ± 1.17		
CCCCCCCCCCCCCNC(=O)NNC(=O)c1ccc(O)cc1 [1bb, 2-(4-Hydroxybenzoyl)-N-tridecylhydrazine-1-carboxamide]	2.0	74.7 ± 3.31	149 ± 10.7		
CNC(=O)NNC(=O)c1ccc(F)cc1 [1c, 2-(4-Fluorobenzoyl)-N-methylhydrazine-1-carboxamide]	6.4	57.2 ± 1.66	366 ± 78.4		
CNC(=O)NNC(=O)c1ccc(S(N)(=O)=O)cc1 [1cc, N-Methyl-2-(4-sulfamoylbenzoyl)hydrazine-1-carboxamide]	2.9	86.14 ± 0.5	250 ± 5.22		
CCCCCCCCCCCCCNC(=O)NNC(=O)c1ccc(F)cc1 [1d, 2-(4-Fluorobenzoyl)-N-tridecylhydrazine-1-carboxamide]	8.0	60.16 ± 0.53	483 ± 20.2		
CCCCCCCCCCCCCNC(=O)NNC(=O)c1ccc(S(N)(=O)=O)cc1 [1dd, 2-(4-Sulfamoylbenzoyl)-N-tridecylhydrazine-1-carboxamide]	3.7	74.6 ± 1.12	275 ± 10.7		
CNC(=O)NNC(=O)c1ccc(Cl)cc1 [1e, 2-(4-Chlorobenzoyl)-N-methylhydrazine-1-carboxamide]	7.2	44.1 ± 1.79	319 ± 12.6		
CNC(=O)NNC(=O)c1ccccc1 [1ee, 2-Benzoyl-N-methylhydrazine-1-carboxamide]	3.6	63.3 ± 1.49	229.21 ± 0.08		
CCCCCCCCCCCCCNC(=O)NNC(=O)c1ccc(Cl)cc1 [1f, 2-(4-Chlorobenzoyl)-N-tridecylhydrazine-1-carboxamide]	1.0	86.59 ± 0.29	88.7 ± 3.28		
CCCCCCCCCCCCCNC(=O)NNC(=O)c1ccccc1 [1ff, 2-Benzoyl-N-tridecylhydrazine-1-carboxamide]	3.2	73.4 ± 2.45	235 ± 5.57		
CNC(=O)NNC(=O)c1ccc(Br)cc1 [1g, 2-(4-Bromobenzoyl)-N-methylhydrazine-1-carboxamide]	7.1	50.6 ± 1.55	359.6 ± 2.17		
CCCCCCCCCCCCCNC(=O)NNC(=O)c1ccc(Br)cc1 [1h, 2-(4-Bromobenzoyl)-N-tridecylhydrazine-1-carboxamide]	0.4	72.66 ± 0.67	27.08 ± 0.07	13.3	
CNC(=O)NNC(=O)c1ccc(I)cc1 [1i, 2-(4-Iodobenzoyl)-N-methylhydrazine-1-carboxamide]	>6.8	73.8 ± 1.78	> 500		
CCCCCCCCCCCCCNC(=O)NNC(=O)c1ccc(I)cc1 [1j, 2-(4-Iodobenzoyl)-N-tridecylhydrazine-1-carboxamide]	2.4	79.7 ± 2.08	192 ± 3.45		
CNC(=O)NNC(=O)c1ccc([N+](=O)[O-])cc1 [1k, N-Methyl-2-(4-nitrobenzoyl)hydrazine-1-carboxamide]	3.3	54 ± 2.21	178 ± 9.13		
CCCCCCCCCCCCCNC(=O)NNC(=O)c1ccc([N+](=O)[O-])cc1 [1l, 2-(4-Nitrobenzoyl)-N-tridecylhydrazine-1-carboxamide]	0.4	53.7 ± 1.2	22.31 ± 0.09		12.4
CNC(=O)NNC(=O)c1ccc(C#N)cc1 [1m, 2-(4-Cyanobenzoyl)-N-methylhydrazine-1-carboxamide]	8.1	55.64 ± 0.27	448 ± 39		
CCCCCCCCCCCCCNC(=O)NNC(=O)c1ccc(C#N)cc1 [1n, 2-(4-Cyanobenzoyl)-N-tridecylhydrazine-1-carboxamide]	7.6	54.6 ± 1.27	418 ± 15.7		

SMILES	Selectivity BChE/AChE [1]	IC50 [1] [µM]	IC50 [2] [µM]	Fold improvement of BChE inhibition, tridecyl vs. N-methyl analog ([2]; 1g vs. 1h) [×]	Fold superiority of BChE inhibition over parent compound P2 ([2]; vs. P2) [×]
CNC(=O)NNC(=O)c1ccc(C)cc1 [1o, N-Methyl-2-(4-methylbenzoyl)hydrazine-1-carboxamide]	4.6	62.29 ± 0.56	284 ± 13.2		
CCCCCCCCCCCCCNC(=O)NNC(=O)c1ccc(C)cc1 [1p, 2-(4-Methylbenzoyl)-N-tridecylhydrazine-1-carboxamide]	2.8	100 ± 2.1	277 ± 6.5		
CNC(=O)NNC(=O)c1ccc(C(C)(C)C)cc1 [1q]	4.7	60 ± 2.47	281 ± 7.79		
CCCCCCCCCCCCCNC(=O)NNC(=O)c1ccc(C(C)(C)C)cc1 [1r]	0.8	75.25 ± 0.43	57.24 ± 0.23		
CNC(=O)NNC(=O)c1ccc(-c2ccccc2)cc1 [1s, N-Methyl-2-(4-phenylbenzoyl)hydrazine-1-carboxamide]	4.7	64.4 ± 1.67	301 ± 7.46		
CCCCCCCCCCCCCNC(=O)NNC(=O)c1ccc(-c2ccccc2)cc1 [1t, 2-(4-Phenylbenzoyl)-N-tridecylhydrazine-1-carboxamide]	0.6	51.1 ± 0.98	32.1 ± 0.18		
CNC(=O)NNC(=O)c1ccc(OC)cc1 [1u, 2-(4-Methoxybenzoyl)-N-methylhydrazine-1-carboxamide]	3.0	57.2 ± 0.92	171 ± 8.36		
CCCCCCCCCCCCCNC(=O)NNC(=O)c1ccc(OC)cc1 [1v, 2-(4-Methoxybenzoyl)-N-tridecylhydrazine-1-carboxamide]	4.5	83.6 ± 3.16	376 ± 17		
CNC(=O)NNC(=O)c1ccc(Oc2ccccc2)cc1 [1w, N-Methyl-2-(4-phenoxybenzoyl)hydrazine-1-carboxamide]	4.0	75 ± 0.84	302.3 ± 2.11		
CCCCCCCCCCCCCNC(=O)NNC(=O)c1ccc(Oc2ccccc2)cc1 [1x, 2-(4-Phenoxybenzoyl)-N-tridecylhydrazine-1-carboxamide]	6.3	58.3 ± 3.29	368 ± 14.3		
CNC(=O)NNC(=O)c1ccc(N(C)C)cc1 [1y, 2-[4-(Dimethylamino)benzoyl]-N-methylhydrazine-1-carboxamide]	4.3	70 ± 1.74	300 ± 13.6		
CCCCCCCCCCCCCNC(=O)NNC(=O)c1ccc(N(C)C)cc1 [1z, 2-[4-(Dimethylamino)benzoyl]-N-tridecylhydrazine-1-carboxamide]	2.1	87.67 ± 0.83	188 ± 2.22		
CNC(=O)NNC(=O)c1cccc(C(F)(F)F)c1 [2a, N-Methyl-2-[3-(trifluoromethyl)benzoyl]hydrazine-1-carboxamide]	3.7	61.3 ± 1	225 ± 7.84		
CCCCCCCCCCCCCNC(=O)NNC(=O)c1cccc(C(F)(F)F)c1 [2b, N-Tridecyl-2-[3-(trifluoromethyl)benzoyl]hydrazine-1-carboxamide]	4.6	63.9 ± 0.83	292 ± 10.7		
CNC(=O)NNC(=O)c1ccccc1C(F)(F)F [2c, N-Methyl-2-[2-(trifluoromethyl)benzoyl]hydrazine-1-carboxamide]	4.8	61.09 ± 0.03	296.2 ± 0.87		
CCCCCCCCCCCCCNC(=O)NNC(=O)c1ccccc1C(F)(F)F [2d, N-Tridecyl-2-[2-(trifluoromethyl)benzoyl]hydrazine-1-carboxamide]	5.2	80.4 ± 2.1	422 ± 12.4		
CNC(=O)NNC(=O)c1cccc([N+](=O)[O-])c1 [2e, N-Methyl-2-(3-nitrobenzoyl)hydrazine-1-carboxamide]	>7.4	67.4 ± 1.72	> 500		
CCCCCCCCCCCCCNC(=O)NNC(=O)c1cccc([N+](=O)[O-])c1 [2f, 2-(3-Nitrobenzoyl)-N-tridecylhydrazine-1-carboxamide]	3.8	62.5 ± 1.79	236 ± 6.54		
CNC(=O)NNC(=O)c1ccccc1[N+](=O)[O-] [2g, N-Methyl-2-(2-nitrobenzoyl)hydrazine-1-carboxamide]	3.0	64.3 ± 2.23	191 ± 10.1		
